Measurements from PubChem BioAssay (NCI).
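Protocol summary: plate cells (96-well), add compound at 5 concentrations, incubate 48 h, interpolate endpoints linearly. TGI: concentration producing complete growth inhibition.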 Where a SMILES comes first, the peptide text is derived from it. [ ]: non-standard residue; d: D form. Phe(4-NO2) = N[CH](Cc1ccc([N+](=O)[O-])cc1)C(=O)O

Experiments:
Assay in all cases: DTP human tumour cell line panel, 48 h
[1] = test system: HS 578T breast
[2] = test system: U251 CNS
[3] = test system: A498 renal
[4] = test system: RPMI-8226 leukemia
[5] = test system: HCT-116 colon
[6] = test system: SK-MEL-5 melanoma
[7] = test system: SW-620 colon
[8] = test system: CAKI-1 renal
[9] = test system: BT-549 breast
[10] = test system: OVCAR-8 ovarian
[11] = test system: HCT-15 colon
[12] = test system: TK-10 renal
[13] = test system: SN12C renal
[14] = test system: SNB-19 CNS
[15] = test system: NCI-H226 lung
[16] = test system: MDA-MB-231 breast
[17] = test system: MDA-MB-435
[18] = test system: DU-145 prostate
[19] = test system: SF-268 CNS
[20] = test system: EKVX NSCLC

## O[C@H]1[C@H](O)[C@@H](O)[C@@]2(O)CC[C@@H]1N2
[1]
  TGI: > 100 µM
[2]
  TGI: > 100 µM
[3]
  TGI: > 100 µM
[4]
  TGI: > 52.4 µM
[5]
  TGI: > 100 µM
[6]
  TGI: > 100 µM
[7]
  TGI: > 100 µM
[8]
  TGI: > 100 µM
[9]
  TGI: > 100 µM
[10]
  TGI: > 100 µM
[11]
  TGI: > 100 µM
[12]
  TGI: > 100 µM
[13]
  TGI: > 100 µM
[14]
  TGI: > 100 µM
[15]
  TGI: > 100 µM
[16]
  TGI: > 100 µM
[17]
  TGI: > 100 µM
[18]
  TGI: > 100 µM
[19]
  TGI: > 100 µM
[20]
  TGI: > 100 µM

## O=C(O)c1cc2c(cc1CC(Cc1ccc3c(c1)CCCC3)C(=O)O)CCCC2 (stereo not given)
[1]
  TGI: > 100 µM
[2]
  TGI: > 100 µM
[3]
  TGI: > 100 µM
[4]
  TGI: > 100 µM
[5]
  TGI: > 100 µM
[6]
  TGI: > 100 µM
[7]
  TGI: > 100 µM
[8]
  TGI: > 100 µM
[9]
  TGI: > 100 µM
[10]
  TGI: > 100 µM
[11]
  TGI: > 100 µM
[12]
  TGI: > 100 µM
[13]
  TGI: > 100 µM
[14]
  TGI: > 100 µM
[15]
  TGI: > 100 µM
[16]
  TGI: > 100 µM
[17]
  TGI: > 100 µM
[18]
  TGI: > 100 µM
[19]
  TGI: > 100 µM
[20]
  TGI: > 100 µM

## CCC1CCN=C(NS(=O)(=O)c2cc(C)c(Cl)cc2S)N1 (stereo not given)
[1]
  TGI: 92 µM
[2]
  TGI: 93 µM
[3]
  TGI: > 100 µM
[4]
  TGI: 81.5 µM
[5]
  TGI: 94.6 µM
[6]
  TGI: > 100 µM
[7]
  TGI: 90.3 µM
[8]
  TGI: > 100 µM
[9]
  TGI: 57.2 µM
[10]
  TGI: 44.6 µM
[11]
  TGI: > 100 µM
[12]
  TGI: > 100 µM
[13]
  TGI: > 100 µM
[14]
  TGI: > 100 µM
[15]
  TGI: 73.6 µM
[16]
  TGI: > 100 µM
[17]
  TGI: 64.2 µM
[18]
  TGI: > 100 µM
[19]
  TGI: > 100 µM
[20]
  TGI: > 100 µM

## O=C(O)c1cc(=O)c2c(OCC(O)COc3cccc4oc(C(=O)O)cc(=O)c34)cccc2o1
[1]
  TGI: > 100 µM
[2]
  TGI: > 100 µM
[3]
  TGI: > 83.6 µM
[4]
  TGI: > 100 µM
[5]
  TGI: > 100 µM
[6]
  TGI: 99.2 µM
[7]
  TGI: > 100 µM
[8]
  TGI: > 100 µM
[9]
  TGI: > 100 µM
[10]
  TGI: > 100 µM
[11]
  TGI: > 100 µM
[12]
  TGI: > 100 µM
[13]
  TGI: > 100 µM
[14]
  TGI: > 100 µM
[15]
  TGI: > 100 µM
[16]
  TGI: > 100 µM
[17]
  TGI: > 100 µM
[18]
  TGI: > 100 µM
[19]
  TGI: > 100 µM
[20]
  TGI: > 100 µM

## CC(NC(=O)C(Cc1ccc([N+](=O)[O-])cc1)NC(=O)C(N)CCCCN)C(=O)NC(Cc1ccc([N+](=O)[O-])cc1)C(N)=O (stereo not given) (H-K[Phe(4-NO2)]A[Phe(4-NO2)]-NH2; configuration not given here)
[1]
  TGI: 99.6 µM
[2]
  TGI: > 100 µM
[3]
  TGI: > 100 µM
[4]
  TGI: > 44.7 µM
[5]
  TGI: > 100 µM
[6]
  TGI: 51.5 µM
[7]
  TGI: > 100 µM
[8]
  TGI: > 100 µM
[9]
  TGI: > 54 µM
[10]
  TGI: > 100 µM
[11]
  TGI: > 100 µM
[12]
  TGI: > 100 µM
[13]
  TGI: > 100 µM
[14]
  TGI: > 100 µM
[15]
  TGI: > 100 µM
[16]
  TGI: > 69.9 µM
[17]
  TGI: > 71.5 µM
[18]
  TGI: > 100 µM
[19]
  TGI: > 100 µM
[20]
  TGI: > 100 µM

## CN(C)CCCNC(=O)CCNC(=O)c1cc(NC(=O)c2cc(NC(=O)c3cc(NC(=O)c4nccn4C)cn3C)cn2C)cn1C
[1]
  TGI: > 100 µM
[2]
  TGI: > 100 µM
[3]
  TGI: > 100 µM
[4]
  TGI: > 100 µM
[5]
  TGI: > 100 µM
[6]
  TGI: > 100 µM
[7]
  TGI: > 100 µM
[8]
  TGI: > 100 µM
[9]
  TGI: > 100 µM
[10]
  TGI: > 100 µM
[11]
  TGI: > 100 µM
[12]
  TGI: > 100 µM
[13]
  TGI: > 100 µM
[14]
  TGI: > 100 µM
[15]
  TGI: > 100 µM
[16]
  TGI: > 100 µM
[17]
  TGI: > 100 µM
[18]
  TGI: > 100 µM
[19]
  TGI: > 100 µM
[20]
  TGI: > 100 µM

## NC(=O)c1ncn(C2OC(CO)C(O)C2O)c1NC=O (stereo not given)
[1]
  TGI: > 100 µM
[2]
  TGI: > 100 µM
[3]
  TGI: > 100 µM
[4]
  TGI: > 100 µM
[5]
  TGI: > 100 µM
[6]
  TGI: > 100 µM
[7]
  TGI: > 100 µM
[8]
  TGI: > 100 µM
[9]
  TGI: > 100 µM
[10]
  TGI: > 100 µM
[11]
  TGI: > 100 µM
[12]
  TGI: > 100 µM
[13]
  TGI: > 100 µM
[14]
  TGI: > 100 µM
[15]
  TGI: > 100 µM
[16]
  TGI: > 100 µM
[17]
  TGI: > 100 µM
[18]
  TGI: > 100 µM
[19]
  TGI: > 100 µM
[20]
  TGI: > 100 µM

## CC1(C)CC(=O)C2=C(C1)NC1=C(C2)C(=O)CC(C)(C)C1
[1]
  TGI: > 100 µM
[2]
  TGI: > 100 µM
[3]
  TGI: > 100 µM
[4]
  TGI: > 100 µM
[5]
  TGI: > 100 µM
[6]
  TGI: > 100 µM
[7]
  TGI: > 100 µM
[8]
  TGI: > 100 µM
[9]
  TGI: > 100 µM
[10]
  TGI: > 100 µM
[11]
  TGI: > 100 µM
[12]
  TGI: > 100 µM
[13]
  TGI: > 100 µM
[14]
  TGI: > 100 µM
[15]
  TGI: > 100 µM
[16]
  TGI: > 100 µM
[17]
  TGI: > 100 µM
[18]
  TGI: > 100 µM
[19]
  TGI: > 100 µM
[20]
  TGI: > 100 µM

## Cc1ccc(N=NC(=Nc2ccc(Cl)cc2)c2ccc(N(CCC#N)CCC#N)cc2)cc1
[1]
  TGI: > 100 µM
[2]
  TGI: 59.5 µM
[3]
  TGI: > 100 µM
[4]
  TGI: > 100 µM
[5]
  TGI: > 100 µM
[6]
  TGI: > 100 µM
[7]
  TGI: > 100 µM
[8]
  TGI: > 100 µM
[9]
  TGI: > 100 µM
[10]
  TGI: > 100 µM
[11]
  TGI: > 100 µM
[12]
  TGI: 95.8 µM
[13]
  TGI: > 100 µM
[14]
  TGI: > 100 µM
[15]
  TGI: > 100 µM
[16]
  TGI: 81.8 µM
[17]
  TGI: > 100 µM
[18]
  TGI: > 100 µM
[19]
  TGI: > 100 µM
[20]
  TGI: > 100 µM

## O=C(SC1=NCCN1)c1cccc2ccccc12
[1]
  TGI: > 100 µM
[2]
  TGI: > 100 µM
[3]
  TGI: > 100 µM
[4]
  TGI: 94.6 µM
[5]
  TGI: > 100 µM
[6]
  TGI: > 100 µM
[7]
  TGI: > 100 µM
[8]
  TGI: > 100 µM
[9]
  TGI: > 100 µM
[10]
  TGI: > 100 µM
[11]
  TGI: > 100 µM
[12]
  TGI: > 100 µM
[13]
  TGI: > 100 µM
[14]
  TGI: > 100 µM
[15]
  TGI: > 100 µM
[16]
  TGI: > 100 µM
[17]
  TGI: > 100 µM
[18]
  TGI: > 100 µM
[19]
  TGI: > 100 µM
[20]
  TGI: > 100 µM
